Earlier results, collected in patent publication US9387169B2, “Rapamycin powders for pulmonary delivery” (Civitas Therapeutics, Inc., priority 2014, dated 2016).

Conditions: amorphous form

chemical stability: extremely chemically unstable
SMILES: CO[C@H]1C[C@@H]2CC[C@@H](C)[C@@](O)(O2)C(=O)C(=O)N2CCCC[C@H]2C(=O)O[C@H]([C@H](C)C[C@@H]2CC[C@@H](O)[C@H](OC)C2)CC(=O)[C@H](C)/C=C(\C)[C@@H](O)[C@@H](OC)C(=O)[C@H](C)C[C@H](C)/C=C/C=C/C=C/1C [amorphous rapamycin, rapamycin]
